Patent publication US20190002429A1, “Derivatives of Xanthone Compounds” (Agency for Science, Technology and Research, priority 2011, published 2019)
In brackets after ≈: the same amount, converted by molar mass. Like-named read-outs stand apart in the source and are kept apart here.

Key:
[1] = system: S. aureus DM4001; experiment: SYTOX green membrane permeabilization assay, S. aureus; details: 10 μM; for SYTOX green staining of bacteria (fluorescence microscopy): FIG. 14; for Membrane permeabilization (SYTOX green fluorescence emission): fluorescence spectroscopy
Protocol: S. aureus DM4001 was harvested at early exponential phase and suspended in 40 mM PBS until OD620 of 0.09 was obtained. Then, the bacteria suspension was incubated with 3 μM of SYTOX Green in dark. The mixture was monitored in a stirring cuvette at an excitation wavelength of 504 nm and at an emission wavelength of 523 nm until the fluorescence was stable. Then, 10 μM of AM compounds were added and the changed of fluorescence emissions were monitored.

[2] = system: MRSA DM21455; experiment: MIC against MRSA DM21455; type: cell-based, Staphylococcus aureus; details: for MIC: Staphylococcus aureus; for Minimum inhibition concentration (MIC): MRSA DM21455, Source: Eye
[3] = system: MRSA DM09808R; experiment: MIC against MRSA DM09808R; type: cell-based, Staphylococcus aureus; details: for MIC: Staphylococcus aureus
[4] = system: MRSA DM21595; experiment: MIC against MRSA DM21595; type: cell-based, Staphylococcus aureus; details: Staphylococcus aureus
[5] = system: MRSA DR42412; experiment: MIC against MRSA DR42412; type: cell-based, Staphylococcus aureus; details: Staphylococcus aureus
[6] = system: Staphylococcus aureus ATCC 700699 (VISA); experiment: MIC against S. aureus ATCC 700699 (MRSA-700699, VISA); type: cell-based; details: for MIC: Staphylococcus aureus
[7] = system: MRSA; experiment: MIC99 against MRSA (Table 2-1); type: cell-based, Staphylococcus aureus
[8] = system: S. aureus; experiment: MIC99 against S. aureus (Table 2-1); type: cell-based, Staphylococcus aureus
[9] = system: Staphylococcus aureus ATCC29213; experiment: MIC against S. aureus ATCC29213; type: cell-based; details: for MIC: Table 5
[10] = system: Pseudomonas aeruginosa ATCC27853; experiment: MIC against Pseudomonas aeruginosa ATCC27853; type: cell-based
[11] = system: Clinical Staphylococcus aureus DM4001; experiment: Cytoplasmic membrane depolarization (DiSC3 dye); type: cell-based; details: DiSC3 fluorescence; AM-016 at 12.5 ug/mL
Protocol: Membrane potential-sensitive dye 3,3′-dipropylthiadicarbocyanine iodide (DiSC3) was used to determine the cytoplasmic membrane depolarization activity of AM-016. An overnight culture of clinical Staphylococcus aureus DM4001(source: Eye) was allowed to grow in Muller-Hinton broth (MHB) to OD620=0.3-0.4. Then, the bacteria was collected by centrifugation at 2800 r.p.m at 37° C. for 30 minutes and washed with 5 mM HEPES buffer at pH7. […] The cell suspension was then incubated with 0.1M KCl and 0.4 μM DiSC3 at 37° C. for 30 minutes. Dye uptake was monitored by fluorospectrometry (Photon Technology International (PTI) Photomultiplier Detection Systems, model 814) in a stirred cuvette until the fluorescence signal was stable. The desired concentration of AM-016 was added and the fluorescence was monitored at an excitation wavelength of 622 nm and at an emission wavelength of 670 nm. A blank with dye in the absence of bacteria with same concentration of AM-016 was used as a control.

[12] = system: Gram-positive bacteria; experiment: Antimicrobial activity against Gram-positive bacteria (statement); type: cell-based; details: at 50 ug/ml
[13] = system: red blood cell
[14] = system: Clinical Staphylococcus aureus DM4001; experiment: MIC against clinical S. aureus DM4001; type: cell-based; design: MIC: unit not given here; details: Clinical S. aureus DM4001, Source: Eye; for MIC: Table 5
[15] = system: Bacillus cereus ATCC11778; experiment: MIC against Bacillus cereus ATCC11778; type: cell-based; details: for MIC: Table 5
[16] = system: Mycobacterium tuberculosis
[17] = system: Mycobacterium tuberculosis; experiment: microbe, parasite or virus in culture; details: read-out: MIC100
[18] = system: Klebsiella pneumoniae ATCC10031; experiment: MIC against Klebsiella pneumoniae ATCC10031; type: cell-based
[19] = type: physicochemical; details: pH 7
Protocol: The solvent was added stepwise until the compound was dissolved completely. Then, the stock solution was diluted to series of diluents and the absorbance of each diluent was determined.

[20] = pH value in different media; type: physicochemical
Description: The pH values were obtained using an electronic pH meter.

[21] = system: red blood cell; experiment: Hemolytic activity / in vitro toxicity (HC50); details: for Hemolytic concentration, HC50: Table 10; for HC50: Table 2-1, in vitro toxicity
[22] = system: Enterococcus faecalis ATCC 51299 VRE; experiment: MIC against Enterococcus faecalis ATCC 51299 VRE; type: cell-based; details: E. faecalis ATCC 51299 VRE; no unit in table (Example 10 MICs in μg/ml)
[23] = system: Enterococcus faecalis 11: DS6527 (VRE 208/11); experiment: MIC against Enterococcus faecalis DS6527 (VRE 208/11); type: cell-based; details: E. faecalis DS6527 (VRE 208/11); no unit in table (Example 10 MICs in μg/ml)
[24] = system: Enterococcus faecalis 11: DU9345 VRE; experiment: MIC against Enterococcus faecalis DU9345 VRE; type: cell-based; details: E. faecalis DU9345 VRE; no unit in table (Example 10 MICs in μg/ml)
[25] = system: Staphylococcus aureus 10: DB6506 (MRSA04/10) (VISA); experiment: MIC against S. aureus DB6506 (VISA); type: cell-based; details: no unit in table (Example 10 MICs in μg/ml)
[26] = system: MRSA DM21455; experiment: Drug resistance test, 20 serial passages; type: cell-based, Staphylococcus aureus; details: MRSA DM21455, FIG. 7

Structure (SMILES): CCN(CC)CCCCCCCCCCCCOc1cc2oc3cc(OCCCCCCCCCCCCN(CC)CC)c(OC)c(CC=C(C)C)c3c(=O)c2c(O)c1CC=C(C)C [AM-045]
- SYTOX green staining of bacteria (fluorescence microscopy) [1]: no significant staining
- Membrane permeabilization (SYTOX green fluorescence emission) [1]: not able to trigger the membrane permeabilization

Structure (SMILES): CCCCCCCCCC(=O)N[C@@H](Cc1c[nH]c2ccccc12)C(=O)N[C@H](CC(N)=O)C(=O)N[C@@H](CC(=O)O)C(=O)N[C@@H]1C(=O)NCC(=O)N[C@@H](CCCN)C(=O)N[C@@H](CC(=O)O)C(=O)N[C@H](C)C(=O)N[C@@H](CC(=O)O)C(=O)NCC(=O)N[C@H](CO)C(=O)N[C@@H]([C@H](C)CC(=O)O)C(=O)N[C@@H](CC(=O)c2ccccc2N)C(=O)O[C@@H]1C [Daptomycin, reference compound]
- MIC ([2]; MRSA-21455 (Eye), Example 10, Mueller Hinton broth dilution, read-out: MIC): 0.78 mg/L (≈ 0.481 µM)
- MIC ([3]; MRSA-09808R (Eye), Example 10, Mueller Hinton broth dilution, read-out: MIC): 0.195 mg/L (≈ 0.12 µM)
- MIC ([4]; MRSA-21595 (Wound), Example 10, Mueller Hinton broth dilution, read-out: MIC): 0.395 mg/L (≈ 0.244 µM)
- MIC ([5]; MRSA-42412 (Sputum), Example 10, Mueller Hinton broth dilution, read-out: MIC): 0.195 mg/L (≈ 0.12 µM)
- MIC ([6]; MRSA-700699, Example 10, Mueller Hinton broth dilution, read-out: MIC): 0.78 mg/L (≈ 0.481 µM)

Structure (SMILES): COc1c(OCCCCBr)cc2oc3cc(OCCCCBr)c(CC=C(C)C)c(O)c3c(=O)c2c1CC=C(C)C [AM-005]
- MIC99 MRSA [7]: >200 mg/L
- MIC99 S. aureus [8]: >200 mg/L
- Minimum inhibition concentration (MIC) [2]: >50 mg/L
- Minimum inhibition concentration (MIC) ([3]; MRSA DM09808R, Source: Eye): >50 mg/L
- Minimum inhibition concentration (MIC) [9]: >50 mg/L
- Minimum inhibition concentration (MIC) [10]: >50 mg/L
- Cytoplasmic membrane depolarization [11]: does not depolarize the membrane
- Activity against Gram-positive bacteria [12]: did not show activity
- HC50 [13]: >200 µg/mL
- SYTOX green staining of bacteria (fluorescence microscopy) [1]: no significant staining
- Membrane permeabilization (SYTOX green fluorescence emission) [1]: not able to trigger the membrane permeabilization

Structure (SMILES): COc1c(OCC(=O)O)cc2oc3cc(O)c(CC=C(C)C)c(O)c3c(=O)c2c1CC=C(C)C [AM-072]
- Minimum inhibition concentration (MIC) [2]: 6.25 mg/L (≈ 13.3 µM)
- Minimum inhibition concentration (MIC) [14]: 6.25 mg/L (≈ 13.3 µM)
- MIC [14]: 13.34
- Minimum inhibition concentration (MIC) [9]: 6.25 mg/L (≈ 13.3 µM)
- MIC [9]: 13.34 µM (≈ 6.25 µg/mL)
- Minimum inhibition concentration (MIC) [15]: 6.25 mg/L (≈ 13.3 µM)
- MIC [15]: 13.34 µM (≈ 6.25 µg/mL)
- MIC100 [16]: 250 µM

Structure (SMILES): CC[C@@H](CO)NCCN[C@@H](CC)CO [Ethambutol]
- MIC [17]: 20 µM (≈ 4.09 µg/mL)

Structure (SMILES): COC(=O)C(CCCNC(=N)N)NC(=O)COc1cc2oc3cc(OCC(=O)NC(CCCNC(=N)N)C(=O)OC)c(OC)c(CC=C(C)C)c3c(=O)c2c(O)c1CC=C(C)C (stereo not drawn) [AM-052]
- MIC99 ([2]; Methicillin-resistant S. aureus DM21455, Source: Eye): 1.56 mg/L (≈ 1.8 µM)
- MIC99 ([3]; Methicillin-resistant S. aureus DM09808R): 3.125 mg/L (≈ 3.6 µM)
- MIC99 [9]: 6.25 mg/L (≈ 7.21 µM)
- MIC99 [15]: 3.125 mg/L (≈ 3.6 µM)
- MIC99 [10]: 12.5 mg/L (≈ 14.4 µM)
- MIC99 [18]: 6.25 mg/L (≈ 7.21 µM)
- Solubility [19]: not soluble
- pH ([20]; Saline, 50 μg/ml compound): 5.33 ± 0.05
- pH ([20]; Saline, 100 μg/ml compound): 5.33 ± 0.01
- pH ([20]; Water, 50 μg/ml compound): 6.52 ± 0.29
- pH ([20]; Water, 100 μg/ml compound): 7.66 ± 0.33
- HC50 [13]: 238 µg/mL

Structure (SMILES): COc1c(O)cc2oc3cc(OCC(=O)O)c(CC=C(C)C)c(O)c3c(=O)c2c1CC=C(C)C [AM-071]
- Minimum inhibition concentration (MIC) [2]: 25 mg/L (≈ 53.4 µM)
- Minimum inhibition concentration (MIC) [14]: 25 mg/L (≈ 53.4 µM)
- MIC [14]: 53.36
- Minimum inhibition concentration (MIC) [9]: 12.5 mg/L (≈ 26.7 µM)
- MIC [9]: 26.68 µM (≈ 12.5 µg/mL)
- Minimum inhibition concentration (MIC) [15]: 6.25 mg/L (≈ 13.3 µM)
- MIC [15]: 13.34 µM (≈ 6.25 µg/mL)
- MIC100 [16]: 250 µM
- Hemolytic concentration, HC50 [21]: 37.5 µg/mL

Structure (SMILES): CCN(CC)CCCCCCCCCCOc1cc2oc3cc(OCCCCCCCCCCN(CC)CC)c(OC)c(CC=C(C)C)c3c(=O)c2c(O)c1CC=C(C)C [AM-044]
- SYTOX green staining of bacteria (fluorescence microscopy) [1]: no significant staining
- Membrane permeabilization (SYTOX green fluorescence emission) [1]: not able to trigger the membrane permeabilization

Structure (SMILES): CC(C)=CCc1c(O)cc2oc3cc(O)c(O)c(CC=C(C)C)c3c(=O)c2c1O [AM-013, Gamma-mangostin, reference compound]
- MIC100 [16]: 125 µM
- MIC100 ([16]; value in brackets): 49.55 mg/L

Structure (SMILES): CN[C@H](CC(C)C)C(=O)N[C@H]1C(=O)N[C@@H](CC(N)=O)C(=O)N[C@H]2C(=O)N[C@H]3C(=O)N[C@H](C(=O)N[C@H](C(=O)O)c4cc(O)cc(O)c4-c4cc3ccc4O)[C@H](O)c3ccc(c(Cl)c3)Oc3cc2cc(c3O[C@@H]2O[C@H](CO)[C@@H](O)[C@H](O)[C@H]2O[C@H]2C[C@](C)(N)[C@H](O)[C@H](C)O2)Oc2ccc(cc2Cl)[C@H]1O [Vancomycin, reference compound]
- MIC ([2]; MRSA): 0.78 mg/L (≈ 0.538 µM)
- MIC ([3]; MRSA): 0.395 mg/L (≈ 0.273 µM)
- MIC ([4]; MRSA): 0.78 mg/L (≈ 0.538 µM)
- MIC ([5]; MRSA): 0.78 mg/L (≈ 0.538 µM)
- Minimum inhibitory concentration ([6]; S. aureus ATCC 700699 (VISA), no unit in table (Example 10 MICs in μg/ml)): 6.25
- MIC [6]: 6.25 mg/L (≈ 4.31 µM)
- Minimum inhibitory concentration [22]: 50
- Minimum inhibitory concentration [23]: Above 100
- Minimum inhibitory concentration [24]: 1.56
- Minimum inhibitory concentration [25]: 1.56
- Development of drug resistance [26]: develops drug resistance more quickly

Structure (SMILES): COc1c(O)cc2oc3cc(O)c(CC=C(C)C)c(O)c3c(=O)c2c1CC=C(C)C [AM-000, alpha-mangostin, reference compound]
- MIC99 MRSA [7]: 1.56 mg/L (≈ 3.8 µM)
- MIC99 S. aureus [8]: 1.56 mg/L (≈ 3.8 µM)
- HC50 [21]: 9 µg/mL
- Hemolytic concentration, HC50 [21]: 6.5 µg/mL

Structure (SMILES): CCN(CC)CCCCCCCCOc1cc2oc3cc(OCCCCCCCCN(CC)CC)c(OC)c(CC=C(C)C)c3c(=O)c2c(O)c1CC=C(C)C [AM-043]
- Membrane permeabilization (SYTOX green fluorescence emission) [1]: weaker membrane permeabilization effect

Structure (SMILES): COc1c(OCCCCN2CCOCC2)cc2oc3cc(OCCCCN4CCOCC4)c(CC=C(C)C)c(O)c3c(=O)c2c1CC=C(C)C [AM-009]
- MIC99 MRSA [7]: >200 mg/L
- MIC99 S. aureus [8]: >200 mg/L
- Minimum inhibition concentration (MIC) [2]: >25 mg/L
- Minimum inhibition concentration (MIC) [9]: >25 mg/L
- MIC100 [16]: 8 µM
- MIC100 ([16]; value in brackets): 5.54 mg/L
- HC50 [21]: >200 µg/mL
- Hemolytic concentration, HC50 [21]: >1000 µg/mL
- SYTOX green staining of bacteria (fluorescence microscopy) [1]: no significant staining
- Membrane permeabilization (SYTOX green fluorescence emission) [1]: not able to trigger the membrane permeabilization
